Patent US20250206732A1, “COMPOUNDS AND METHODS FOR THE TARGETED DEGRADATION OF KRAS” (Arvinas Operations, Inc., priority 2022, published 2025)

Target: T1, AsPC-1 HiBiT-KRASG12D (Homo sapiens, UniProt P01116, G12D)
T1 construct: insert the HiBiT tag onto the N-terminus of one or more of the endogenous KRAS alleles; endogenous in cells; host or cells: AsPC-1 (ATCC CRL-1682), CRISPR-Cas9 knock-in clone, one tagged allele
Experiment: HiBiT degradation assay (G12D), AsPC-1 HiBiT-KRASG12D cells
Type: cell-based
Settings: 24 hours treatment; for Dmax: ASPC1, AsPC-1 HiBiT-KRASG12D cells, maximum degradation observed; for DC50: AsPC-1 HiBiT-KRASG12D cells, HiBiT luminescence
Summary of the method: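 In this degradation format, an engineered AsPC-1 clone with HiBiT fused to the KRAS N-terminus is exposed to compounds for 24 hours, after which remaining tagged protein is quantified by lytic HiBiT luminescence.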

T1 sequence (P01116 1-188 isoform P01116-2 G12D): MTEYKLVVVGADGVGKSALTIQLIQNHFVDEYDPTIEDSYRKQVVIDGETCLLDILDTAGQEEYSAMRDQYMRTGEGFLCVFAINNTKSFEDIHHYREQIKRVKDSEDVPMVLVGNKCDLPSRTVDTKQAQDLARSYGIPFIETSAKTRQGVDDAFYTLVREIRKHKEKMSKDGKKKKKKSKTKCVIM

**Q.** For C#Cc1c(F)ccc2cc(O)cc(-c3ncc4c(N5CC6CCC(C5)N6)nc(OCCN5CCC(F)(COc6cc([C@@H](C(=O)N7C[C@H](O)C[C@H]7C(=O)N[C@@H](C)c7ccc(-c8scnc8C)cc7)C(C)C)on6)CC5)nc4c3F)c12 [Compound 154, (2S,4R)-1-[(2S)-2-{3-[(1-{2-[(4-{3,8-diazabicyclo[3.2.1]octan-3-yl}-7-(8-ethynyl-7-fluoro-3-hydroxynaphthalen-1-yl)-8-fluoropyrido[4,3-d]pyrimidin-2-yl)oxy]ethyl}-4-fluoropiperidin-4-yl)methoxy]-1,2-oxazol-5-yl}-3-methylbutanoyl]-4-hydroxy-N-[(1S)-1-[4-(4-methyl-1,3-thiazol-5-yl)phenyl]ethyl]pyrrolidine-2-carboxamide], which Dmax is on record?
**A.** 80 to 100%

**Q.** What about the DC50 of the same compound?
**A.** < 600 nM

**Q.** CCc1cccc2cc(O)cc(-c3ncc4c(N5CC6CCC(C5)N6)nc(OCCN5CCC(CN6CC(Oc7cc([C@H](C(=O)N8C[C@H](O)C[C@H]8C(=O)N[C@@H](C)c8ccc(-c9scnc9C)cc8)C(C)C)on7)C6)CC5)nc4c3F)c12 [Compound 244, (2S,4R)-1-[(2R)-2-[3-({1-[(1-{2-[(4-{3,8-diazabicyclo[3.2.1]octan-3-yl}-7-(8-ethyl-3-hydroxynaphthalen-1-yl)-8-fluoropyrido[4,3-d]pyrimidin-2-yl)oxy]ethyl}piperidin-4-yl)methyl]azetidin-3-yl}oxy)-1,2-oxazol-5-yl]-3-methylbutanoyl]-4-hydroxy-N-[(1S)-1-[4-(4-methyl-1,3-thiazol-5-yl)phenyl]ethyl] pyrrolidine-2-carboxamide] was tested. Which Dmax did it give?
**A.** 80 to 100%

**Q.** What about the DC50 of the same compound?
**A.** < 600 nM

**Q.** C#Cc1c(F)ccc2cc(O)cc(-c3ncc4c(N5CC6CCC(C5)N6)nc(OCCN5CCC(F)(COc6cc([C@H](C(=O)N7C[C@H](O)C[C@H]7C(=O)N[C@@H](C)c7ccc(-c8scnc8C)cc7)C(C)C)on6)CC5)nc4c3F)c12 [Compound 153, (2S,4R)-1-[(2R)-2-{3-[(1-{2-[(4-{3,8-diazabicyclo[3.2.1]octan-3-yl}-7-(8-ethynyl-7-fluoro-3-hydroxynaphthalen-1-yl)-8-fluoropyrido[4,3-d]pyrimidin-2-yl)oxy]ethyl}-4-fluoropiperidin-4-yl)methoxy]-1,2-oxazol-5-yl}-3-methylbutanoyl]-4-hydroxy-N-[(1S)-1-[4-(4-methyl-1,3-thiazol-5-yl)phenyl]ethyl]pyrrolidine-2-carboxamide] was tested. Which Dmax did it give?
**A.** 80 to 100%

**Q.** And the DC50?
**A.** < 600 nM

**Q.** How did the Dmax turn out when CCc1cccc2cc(O)cc(-c3ncc4c(N5CC6CCC(C5)N6)nc(OC[C@@H]5CC[C@@H](COC(=O)N6CCN(c7cc([C@@H](C(=O)N8C[C@H](O)C[C@H]8C(=O)N[C@@H](C)c8ccc(-c9scnc9C)cc8)C(C)C)on7)CC6)N5C)nc4c3F)c12 [Compound 289, [(2S,5S)-5-[[4-(3,8-diazabicyclo[3.2.1]octan-3-yl)-7-(8-ethyl-3-hydroxy-1-naphthyl)-8-fluoro-pyrido[4,3-d]pyrimidin-2-yl]oxymethyl]-1-methyl-pyrrolidin-2-yl]methyl 4-[5-[(1S)-1-[(2S,4R)-4-hydroxy-2-[[(1S)-1-[4-(4-methylthiazol-5-yl)phenyl]ethyl]carbamoyl]pyrrolidine-1-carbonyl]-2-methyl-propyl]isoxazol-3-yl]piperazine-1-carboxylate] was run?
**A.** 20 to 60%

**Q.** What about the DC50 of the same compound?
**A.** 1000 to 3000 nM

**Q.** For CCc1cccc2cc(O)cc(-c3ncc4c(N5CCCCCC5)nc(OC[C@@H]5CC[C@@H](COC(=O)N6CCN(c7cc([C@H](C(=O)N8C[C@H](O)C[C@H]8C(=O)N[C@@H](C)c8ccc(-c9scnc9C)cc8)C(C)C)on7)[C@H](C)C6)N5C)nc4c3F)c12 [Compound 230, [(2S,5S)-5-[[4-(azepan-1-yl)-7-(8-ethyl-3-hydroxy-1-naphthyl)-8-fluoro-pyrido[4,3-d]pyrimidin-2-yl]oxymethyl]-1-methyl-pyrrolidin-2-yl]methyl (3R)-4-[5-[(1R)-1-[(2S,4R)-4-hydroxy-2-[[(1S)-1-[4-(4-methylthiazol-5-yl)phenyl]ethyl]carbamoyl]pyrrolidine-1-carbonyl]-2-methyl-propyl]isoxazol-3-yl]-3-methyl-piperazine-1-carboxylate], which Dmax is on record?
**A.** 60 to 80%

**Q.** And the DC50?
**A.** < 600 nM

**Q.** CCc1cccc2cc(O)cc(-c3ncc4c(N5CC6CCC(C5)N6)nc(OCCN5CCC(CC6CN(c7cc([C@H](C(=O)N8C[C@H](O)C[C@H]8C(=O)N[C@@H](C)c8ccc(-c9ccnn9C)cc8)C(C)C)on7)C6)CC5)nc4c3F)c12 [Compound 212, (2S,4R)-1-[(2R)-2-(3-{3-[(1-{2-[(4-{3,8-diazabicyclo[3.2.1]octan-3-yl}-7-(8-ethyl-3-hydroxynaphthalen-1-yl)-8-fluoropyrido[4,3-d]pyrimidin-2-yl)oxy]ethyl}piperidin-4-yl)methyl]azetidin-1-yl}-1,2-oxazol-5-yl)-3-methylbutanoyl]-4-hydroxy-N-[(1S)-1-[4-(1-methyl-1H-pyrazol-5-yl)phenyl]ethyl]pyrrolidine-2-carboxamide] was tested. Which Dmax did it give?
**A.** 80 to 100%

**Q.** And the DC50?
**A.** < 600 nM

**Q.** What does the source list for C#Cc1c(F)ccc2cc(O)cc(-c3ncc4c(N5CC6CCC(C5)N6)nc(OCCN5CCC(CC6CN(c7cc([C@H](C(=O)N8C[C@H](O)C[C@H]8C(=O)N[C@@H](C)c8ccc(-c9ccnn9C)cc8)C(C)C)on7)C6)CC5)nc4c3F)c12 [Compound 156, (2S,4R)-1-[(2R)-2-(3-{3-[(1-{2-[(4-{3,8-diazabicyclo[3.2.1]octan-3-yl}-7-(8-ethynyl-7-fluoro-3-hydroxynaphthalen-1-yl)-8-fluoropyrido[4,3-d]pyrimidin-2-yl)oxy]ethyl}piperidin-4-yl)methyl]azetidin-1-yl}-1,2-oxazol-5-yl)-3-methylbutanoyl]-4-hydroxy-N-[(1S)-1-[4-(1-methyl-1H-pyrazol-5-yl)phenyl]ethyl]pyrrolidine-2-carboxamide]?
**A.** Dmax: 80 to 100%; DC50: < 600 nM

**Q.** For CCc1cccc2cc(O)cc(-c3ncc4c(N5CC6CCC(C5)N6)nc(OC[C@]56CCCN5[C@H](COC(=O)N5CCN(c7cc([C@H](C(=O)N8C[C@H](O)C[C@H]8C(=O)N[C@@H](C)c8ccc(-c9scnc9C)cc8)C(C)C)on7)C[C@H]5C)CC6)nc4c3F)c12 [Compound 120, [(3S,7aR)-7a-{[(4-{3,8-diazabicyclo[3.2.1]octan-3-yl}-7-(8-ethyl-3-hydroxynaphthalen-1-yl)-8-fluoropyrido[4,3-d]pyrimidin-2-yl)oxy]methyl}-hexahydro-1H-pyrrolizin-3-yl]methyl (2R)-4-{5-[(2R)-1-[(2S,4R)-4-hydroxy-2-{[(1S)-1-[4-(4-methyl-1,3-thiazol-5-yl)phenyl]ethyl]carbamoyl}pyrrolidin-1-yl]-3-methyl-1-oxobutan-2-yl]-1,2-oxazol-3-yl}-2-methylpiperazine-1-carboxylate], which Dmax is on record?
**A.** 80 to 100%

**Q.** And the DC50?
**A.** < 600 nM

**Q.** Which results are given for CCc1cccc2cc(O)cc(-c3ncc4c(N5CC6CCC(C5)N6)nc(OCCN5CCC(F)(CN6CCN(c7cc([C@@H](C(=O)N8C[C@H](O)C[C@H]8C(=O)N[C@@H](C)c8ccc(-c9scnc9C)cc8)C(C)C)on7)[C@@H](C)C6)CC5)nc4c3F)c12 [Compound 203, (2S,4R)-1-[(2S)-2-{3-[(2S)-4-[(1-{2-[(4-{3,8-diazabicyclo[3.2.1]octan-3-yl}-7-(8-ethyl-3-hydroxynaphthalen-1-yl)-8-fluoropyrido[4,3-d]pyrimidin-2-yl)oxy]ethyl}-4-fluoropiperidin-4-yl)methyl]-2-methylpiperazin-1-yl]-1,2-oxazol-5-yl}-3-methylbutanoyl]-4-hydroxy-N-[(1S)-1-[4-(4-methyl-1,3-thiazol-5-yl)phenyl]ethyl]pyrrolidine-2-carboxamide]?
**A.** Dmax: 20 to 60%; DC50: 1000 to 3000 nM

**Q.** With C#Cc1c(F)ccc2cc(O)cc(-c3ncc4c(N5CC6CCC(C5)N6)nc(OCCN5CCC(CCC6CN(c7cc([C@H](C(=O)N8C[C@H](O)C[C@H]8C(=O)N[C@@H](C)c8ccc(-c9scnc9C)cc8)C(C)C)on7)C6)CC5)nc4c3F)c12 [Compound 184] as the compound, how does the Dmax read?
**A.** 80 to 100%

**Q.** And the DC50?
**A.** < 600 nM

**Q.** With CCc1cccc2cc(O)cc(-c3ncc4c(N5CC6CCC(C5)N6)nc(OCCN5CCN(CC6CN(c7cc([C@H](C(=O)N8C[C@H](O)C[C@H]8C(=O)N[C@@H](C)c8ccc(-c9scnc9C)cc8)C(C)C)on7)C6)CC5)nc4c3F)c12 [Compound 220, (2S,4R)-1-[(2R)-2-(3-{3-[(4-{2-[(4-{3,8-diazabicyclo[3.2.1]octan-3-yl}-7-(8-ethyl-3-hydroxynaphthalen-1-yl)-8-fluoropyrido[4,3-d]pyrimidin-2-yl)oxy]ethyl}piperazin-1-yl)methyl]azetidin-1-yl}-1,2-oxazol-5-yl)-3-methylbutanoyl]-4-hydroxy-N-[(1S)-1-[4-(4-methyl-1,3-thiazol-5-yl)phenyl]ethyl]pyrrolidine-2-carboxamide] as the compound, how does the Dmax read?
**A.** 80 to 100%

**Q.** And the DC50?
**A.** < 600 nM

**Q.** Which results are given for CCc1cccc2cc(O)cc(-c3ncc4c(N5CC6CCC(C5)N6)nc(OC[C@@]56CCCN5[C@H](CN5CCN(c7cc([C@H](C(=O)N8C[C@H](O)C[C@H]8C(=O)N[C@@H](C)c8ccc(-c9scnc9C)cc8)C(C)C)on7)CC5)CC6)nc4c3F)c12 [Compound 94, (2S,4R)-1-[(2R)-2-[3-(4-{[(3S,7aS)-7a-{[(4-{3,8-diazabicyclo[3.2.1]octan-3-yl}-7-(8-ethyl-3-hydroxynaphthalen-1-yl)-8-fluoropyrido[4,3-d]pyrimidin-2-yl)oxy]methyl}-hexahydro-1H-pyrrolizin-3-yl]methyl}piperazin-1-yl)-1,2-oxazol-5-yl]-3-methylbutanoyl]-4-hydroxy-N-[(1S)-1-[4-(4-methyl-1,3-thiazol-5-yl)phenyl]ethyl]pyrrolidine-2-carboxamide]?
**A.** Dmax: 80 to 100%; DC50: < 600 nM

**Q.** Which Dmax does the source give for C#Cc1c(F)ccc2cc(O)cc(-c3ncc4c(N5CC6CCC(C5)N6)nc(OC[C@]56CCCN5[C@H](COC(=O)N5CC(Oc7cc([C@@H](C(=O)N8C[C@H](O)C[C@H]8C(=O)N[C@@H](C)c8ccc(-c9scnc9C)cc8)C(C)C)on7)C5)CC6)nc4c3F)c12 [Compound 303] here?
**A.** 60 to 80%

**Q.** And the DC50?
**A.** < 600 nM
